We go through six compounds from article PMC11558673, “Exploring LCST- and UCST-like Behavior of Branched Molecules Bearing Repeat Units of Elastin-like Peptides as Side Components” (Biomacromolecules, 2024).

Format in all cases: physicochemical
Series [1] can be described thus: Turbidity measurement (LCST/UCST-like behavior, Tt). The following applies: for Tt for the LCST-like behavior: Tt = temperature at half the maximum turbidity, mean ± standard error, at least three measurements; for Temperature-responsive behavior in turbidity measurement: heating to 90 °C and cooling to 5 °C at 1 °C/min, turbidity at 400 nm. The protocol:
Temperature-responsive properties (LCST/UCST-like behavior and its reversibility) were investigated by using a JASCO V-660 spectral photometer (JASCO, Tokyo, Japan). Each peptide was dissolved in phosphate buffer containing NaCl (pH 7.4, 27.4 mM Na2HPO4, 17.8 mM NaH2PO4, 1 M NaCl). NaCl in this concentration is used as an additive to trigger an LCST-like behavior for the inverse transition cycling (a method to purify a protein exploiting the LCST-like behavior of ELPs).[9] The turbidity at 400 nm of each branched ELP solution was traced while increasing or decreasing the temperature at a rate of 0.5 °C/min, except for samples at 0.5 mM, which were traced at 1 °C/min for heating–cooling cycle measurements. For the samples at 0.5 mM, after heating to 90 °C or cooling to 5 °C, the samples were vortexed to eliminate any possible concentration gradients caused by peptide precipitation and kept at 90 or 5 °C for 30 min before starting the subsequent cooling or heating, respectively. The transition temperature (Tt) for LCST was defined as a temperature at which the turbidity of the solution reaches half the maximum value while increasing the temperature. Measurements were performed at least three times.

Series [2] can be described thus: CD measurement (aggregation observed in sample). To be noted: 0.1 mg/mL in filtered phosphate buffer pH 7.4 without NaCl; 10 to 90 °C. The protocol:
CD measurements were carried out using a J-725 spectropolarimeter (JASCO) for [α-E(F1)]5-F1 and [γ-E(F1)]5-F1 in a cuvette with a path length of 1.0 mm. Each peptide was dissolved in filtered phosphate buffer (pH 7.4, 27.4 mM Na2HPO4, and 17.8 mM NaH2PO4) at a concentration of 0.1 mg/mL. […] Spectra were obtained from 190 to 260 nm at temperatures ranging from 10 to 90 °C with 20 °C intervals. Each measurement was performed after 3 min of equilibration at the target temperature. After subtracting the background spectra, Savitzky–Golay filters were applied to smooth all spectra.

The next series is described as follows: ThT fluorescence assay. To be noted: peptide 1 mM; 50 μM ThT; phosphate buffer pH 7.4 with 1 M NaCl; excitation 446 nm, emission 483 nm. The protocol:
A ThT fluorescence assay was conducted using an FP-8500 fluorescence spectrometer (JASCO Co.). The phosphate buffer solutions (pH 7.4, 27.4 mM Na2HPO4, 17.8 mM NaH2PO4) of [α-E(F1)]5-F1 (1 or 0.5 mM) containing 1 M NaCl and 50 μM ThT were prepared. The temperature change rates were the same as those in the turbidity measurements. Using an excitation wavelength of 446 nm, the ThT fluorescence intensities at 483 nm upon temperature changes or over time were recorded.

Series [3] can be described thus: DLS measurement of particle size distribution. The following applies: peptide 0.5 mM, filtered phosphate buffer pH 7.4 with 1 M NaCl. The method, then:
The particle size distribution of branched ELPs was analyzed in filtered phosphate buffer (pH 7.4, 27.4 mM Na2HPO4, 17.8 mM NaH2PO4) containing 1 M NaCl using DLS with a Zetasizer Nano ZS (Malvern Instruments, Worcestershire, U.K.) DLS analysis was performed at temperatures ranging from 15 to 55 °C with 10 °C intervals for [α-E(F1)]n-F1 and [γ-E(F1)]n-F1 under conditions where the ELPs have Tt values around 30 °C for LCST-like behavior (n = 4, 2.5 mM; n = 5, 1 mM; n = 6, 0.5 mM). Additionally, a solution of [α-E(F1)]5-F1 at 0.5 mM was analyzed at 20, 60, and 90 °C. The measurement duration was selected automatically. The parameter data set “protein” (data set: refractive index, 1.450; absorption, 0.001) was used as the material parameter, and the parameter data set “water” (data set: refractive index, 1.330; viscosity, 0.8872) was chosen as the dispersant parameter. Attenuation was selected automatically.

[4] abbreviates: peptide 0.5 mM, turbidity at 400 nm on heating (1 °C/min for heating-cooling cycle measurements), phosphate buffer pH 7.4 with 1 M NaCl.
[5] abbreviates: peptide 1 mM, turbidity at 400 nm on heating 0.5 °C/min, phosphate buffer pH 7.4 with 1 M NaCl.
[6] abbreviates: peptide 2.5 mM, turbidity at 400 nm on heating 0.5 °C/min, phosphate buffer pH 7.4 with 1 M NaCl.
[7] abbreviates: peptide 1.5 mM, turbidity at 400 nm on heating 0.5 °C/min, phosphate buffer pH 7.4 with 1 M NaCl.
[8] abbreviates: peptide 4 mM, turbidity at 400 nm on heating 0.5 °C/min, phosphate buffer pH 7.4 (27.4 mM Na2HPO4, 17.8 mM NaH2PO4) with 1 M NaCl.
Where [9] appears, read: peptide 0.5 mM, phosphate buffer pH 7.4 with 1 M NaCl.

Molecules are shown by their SMILES.

With `CC(C)[C@H](NC(=O)CNC(=O)[C@@H]1CCCN1C(=O)[C@H](Cc1ccccc1)NC(=O)CC[C@H](NC(=O)CC[C@H](NC(=O)CC[C@H](NC(=O)CC[C@H](NC(=O)CC[C@H](NC(=O)CC[C@H](N)C(=O)N[C@@H](Cc1ccccc1)C(=O)N1CCC[C@H]1C(=O)NCC(=O)N[C@H](C(=O)NCC(N)=O)C(C)C)C(=O)N[C@@H](Cc1ccccc1)C(=O)N1CCC[C@H]1C(=O)NCC(=O)N[C@H](C(=O)NCC(N)=O)C(C)C)C(=O)N[C@@H](Cc1ccccc1)C(=O)N1CCC[C@H]1C(=O)NCC(=O)N[C@H](C(=O)NCC(N)=O)C(C)C)C(=O)N[C@@H](Cc1ccccc1)C(=O)N1CCC[C@H]1C(=O)NCC(=O)N[C@H](C(=O)NCC(N)=O)C(C)C)C(=O)N[C@@H](Cc1ccccc1)C(=O)N1CCC[C@H]1C(=O)NCC(=O)N[C@H](C(=O)NCC(N)=O)C(C)C)C(=O)N[C@@H](Cc1ccccc1)C(=O)N1CCC[C@H]1C(=O)NCC(=O)N[C@H](C(=O)NCC(N)=O)C(C)C)C(=O)NCC(N)=O` [[γ-E(F1)]6-F1], the figures for the “Tt for the LCST-like behavior” value in series [1] (setting [4]), in series [1] (setting [5]) and in series [1] (setting [6]) were 34.56 ± 0.48 °C, 23.66 ± 0.06 °C and 8.63 ± 0.31 °C, respectively.
For the compound `CC(C)[C@H](NC(=O)CNC(=O)[C@@H]1CCCN1C(=O)[C@H](Cc1ccccc1)NC(=O)CC[C@H](NC(=O)[C@H](CCC(=O)N[C@@H](Cc1ccccc1)C(=O)N1CCC[C@H]1C(=O)NCC(=O)N[C@H](C(=O)NCC(N)=O)C(C)C)NC(=O)[C@@H](N)CCC(=O)N[C@@H](Cc1ccccc1)C(=O)N1CCC[C@H]1C(=O)NCC(=O)N[C@H](C(=O)NCC(N)=O)C(C)C)C(=O)N[C@@H](CCC(=O)N[C@@H](Cc1ccccc1)C(=O)N1CCC[C@H]1C(=O)NCC(=O)N[C@H](C(=O)NCC(N)=O)C(C)C)C(=O)N[C@@H](Cc1ccccc1)C(=O)N1CCC[C@H]1C(=O)NCC(=O)N[C@H](C(=O)NCC(N)=O)C(C)C)C(=O)NCC(N)=O` [[α-E(F1)]4-F1], the “Tt for the LCST-like behavior” value in series [1] (setting [7]) worked out at 47.04 ± 0.81 °C; in series [1] (setting [6]), 29.98 ± 1.82 °C; in series [1] (setting [8]), 21.12 ± 1.68 °C.
Regarding `CC(C)[C@H](NC(=O)CNC(=O)[C@@H]1CCCN1C(=O)[C@H](Cc1ccccc1)NC(=O)CC[C@H](NC(=O)[C@H](CCC(=O)N[C@@H](Cc1ccccc1)C(=O)N1CCC[C@H]1C(=O)NCC(=O)N[C@H](C(=O)NCC(N)=O)C(C)C)NC(=O)[C@H](CCC(=O)N[C@@H](Cc1ccccc1)C(=O)N1CCC[C@H]1C(=O)NCC(=O)N[C@H](C(=O)NCC(N)=O)C(C)C)NC(=O)[C@@H](N)CCC(=O)N[C@@H](Cc1ccccc1)C(=O)N1CCC[C@H]1C(=O)NCC(=O)N[C@H](C(=O)NCC(N)=O)C(C)C)C(=O)N[C@@H](CCC(=O)N[C@@H](Cc1ccccc1)C(=O)N1CCC[C@H]1C(=O)NCC(=O)N[C@H](C(=O)NCC(N)=O)C(C)C)C(=O)N[C@@H](Cc1ccccc1)C(=O)N1CCC[C@H]1C(=O)NCC(=O)N[C@H](C(=O)NCC(N)=O)C(C)C)C(=O)NCC(N)=O` [[α-E(F1)]5-F1], the “Aggregation behavior in CD sample” value in series [2] is “apparent aggregation behavior was not observed”. The “ThT fluorescence intensity upon heating” value in the series “ThT fluorescence assay” is on record as “sharp increase in fluorescence intensity around Tt”. For the same compound, the “Hydrodynamic diameter at 20, 60 and 90 °C” value in series [3] is “larger hydrodynamic diameters at 60 °C compared to the ones at 20 or 90 °C”. Also, in series [1] (setting [9]), the “Temperature-responsive behavior in turbidity measurement” value was “both LCST- and UCST-like behavior”. The “Tt for the LCST-like behavior” value in series [1] (setting [4]) came out at 56.92 ± 1.28 °C; in series [1] (setting [6]), 13.86 ± 0.33 °C. Besides, the “Solubility at 90 °C” value in series [1] (peptide 1 mM and 2.5 mM at 90 °C, phosphate buffer pH 7.4 with 1 M NaCl, images of measurement cell) is “insoluble”.
On to `CC(C)[C@H](NC(=O)CNC(=O)[C@@H]1CCCN1C(=O)[C@H](Cc1ccccc1)NC(=O)CC[C@H](NC(=O)[C@H](CCC(=O)N[C@@H](Cc1ccccc1)C(=O)N1CCC[C@H]1C(=O)NCC(=O)N[C@H](C(=O)NCC(N)=O)C(C)C)NC(=O)[C@H](CCC(=O)N[C@@H](Cc1ccccc1)C(=O)N1CCC[C@H]1C(=O)NCC(=O)N[C@H](C(=O)NCC(N)=O)C(C)C)NC(=O)[C@@H](N)CCC(=O)N[C@@H](Cc1ccccc1)C(=O)N1CCC[C@H]1C(=O)NCC(=O)N[C@H](C(=O)NCC(N)=O)C(C)C)C(=O)N[C@@H](CCC(=O)N[C@@H](Cc1ccccc1)C(=O)N1CCC[C@H]1C(=O)NCC(=O)N[C@H](C(=O)NCC(N)=O)C(C)C)C(=O)N[C@@H](CCC(=O)N[C@@H](Cc1ccccc1)C(=O)N1CCC[C@H]1C(=O)NCC(=O)N[C@H](C(=O)NCC(N)=O)C(C)C)C(=O)N[C@@H](Cc1ccccc1)C(=O)N1CCC[C@H]1C(=O)NCC(=O)N[C@H](C(=O)NCC(N)=O)C(C)C)C(=O)NCC(N)=O` [[α-E(F1)]6-F1], for which the “Tt for the LCST-like behavior” value in series [1] (setting [4]) was 33.80 ± 0.38 °C; in series [1] (setting [5]), 19.76 ± 0.97 °C; in series [1] (setting [6]), 7.68 ± 0.80 °C.
Consider `CC(C)[C@H](NC(=O)CNC(=O)[C@@H]1CCCN1C(=O)[C@H](Cc1ccccc1)NC(=O)CC[C@H](NC(=O)CC[C@H](NC(=O)CC[C@H](NC(=O)CC[C@H](N)C(=O)N[C@@H](Cc1ccccc1)C(=O)N1CCC[C@H]1C(=O)NCC(=O)N[C@H](C(=O)NCC(N)=O)C(C)C)C(=O)N[C@@H](Cc1ccccc1)C(=O)N1CCC[C@H]1C(=O)NCC(=O)N[C@H](C(=O)NCC(N)=O)C(C)C)C(=O)N[C@@H](Cc1ccccc1)C(=O)N1CCC[C@H]1C(=O)NCC(=O)N[C@H](C(=O)NCC(N)=O)C(C)C)C(=O)N[C@@H](Cc1ccccc1)C(=O)N1CCC[C@H]1C(=O)NCC(=O)N[C@H](C(=O)NCC(N)=O)C(C)C)C(=O)NCC(N)=O` [[γ-E(F1)]4-F1], for which the “Tt for the LCST-like behavior” value in series [1] (setting [7]) worked out at 46.52 ± 0.67 °C; in series [1] (setting [6]), 30.25 ± 0.23 °C; in series [1] (setting [8]), 20.75 ± 0.47 °C.
`CC(C)[C@H](NC(=O)CNC(=O)[C@@H]1CCCN1C(=O)[C@H](Cc1ccccc1)NC(=O)CC[C@H](NC(=O)CC[C@H](NC(=O)CC[C@H](NC(=O)CC[C@H](NC(=O)CC[C@H](N)C(=O)N[C@@H](Cc1ccccc1)C(=O)N1CCC[C@H]1C(=O)NCC(=O)N[C@H](C(=O)NCC(N)=O)C(C)C)C(=O)N[C@@H](Cc1ccccc1)C(=O)N1CCC[C@H]1C(=O)NCC(=O)N[C@H](C(=O)NCC(N)=O)C(C)C)C(=O)N[C@@H](Cc1ccccc1)C(=O)N1CCC[C@H]1C(=O)NCC(=O)N[C@H](C(=O)NCC(N)=O)C(C)C)C(=O)N[C@@H](Cc1ccccc1)C(=O)N1CCC[C@H]1C(=O)NCC(=O)N[C@H](C(=O)NCC(N)=O)C(C)C)C(=O)N[C@@H](Cc1ccccc1)C(=O)N1CCC[C@H]1C(=O)NCC(=O)N[C@H](C(=O)NCC(N)=O)C(C)C)C(=O)NCC(N)=O` [[γ-E(F1)]5-F1]: the “Aggregation behavior in CD sample” value in series [2] is reported as “apparent aggregation behavior was not observed”. For the same compound, the “Temperature-responsive behavior in turbidity measurement” value in series [1] (setting [9]) was “both LCST- and UCST-like behavior”. The “Tt for the LCST-like behavior” value was 61.87 ± 0.60 °C in series [1] (setting [4]), 34.73 ± 0.52 °C in series [1] (setting [5]) and 17.38 ± 0.10 °C in series [1] (setting [6]).
